Patent US5439899A, “Cosalane and related compounds having activity against aids and aids-related infections” (priority 1993, dated 1995)
Where “and” joins values, the source holds several entries; their conditions need not be identical. Equal entries are not always repeated. Where two headings read alike, the source gives them in different places.

Legend:
[1] = tested on: T4 lymphocytes (CEM cell line); assay: NCI in vitro anti-HIV screen, growth inhibition of uninfected CEM cells (XTT); assay type: cell-based; details: for IC50: read-out: IC50 (50% inhibitory concentration); for cytotoxicity (statement): NCI anti-HIV screen, CEM cells
Method: (§1) The assay includes the killing of T4 lymphocytes by HIV. Pursuant to the test, small amounts of HIV are added to cells, and a complete cycle of virus reproduction is necessary to obtain the required cell killing. Agents that interact with virions, cells, or virus gene-products to interfere with viral activities will protect cells from cytolysis. The system is thus designed to detect anti-HIV activity. However, compounds that degenerate or are rapidly metabolized in the culture conditions may not show activity in this screen. All tests are compared with at least one positive (e.g., AZT-treated) control done at the same time under identical conditions.
(§2) 1. The candidate agent is dissolved in dimethyl sulfoxide (unless otherwise instructed), then diluted 1:200 in cell culture medium. Further dilutions (half-log10) are prepared before adding to 96-well microtiter plates.
(§3) 2. T4 lymphocytes (CEM cell line) are exposed to HIV at a virus-to-cell ratio of approximately 0.05 and are plated along with non-infected control cells into drug-containing wells or wells with medium alone.
(§4) 3. Cultures are incubated at 37° in a 5% carbon dioxide atmosphere for 6 days.
(§5) 4. The tetrazolium salt, XTT, is added to all wells, and cultures are incubated to allow formazan color development by viable cells.
(§6) 5. […] are analyzed spectrophotometrically to quantitate formazan production and, in addition, are viewed microscopically for detection of viable cells and confirmation of protective activity.
(§7) 6. Drug-treated virus-infected cells are compared with drug-treated non-infected cells and with other appropriate controls (untreated infected and untreated non-infected cells, drug-containing wells without cells, etc.) on the same plate.
(§8) 7. Data are reviewed in comparison with other tests performed at the same time, and a determination about activity is made.
Survival values of this parameter less then 50% are considered acceptable in the current protocol.

HIV = assay: NCI in vitro anti-HIV screen (XTT soluble-formazan assay, protection of HIV-infected CEM cells); assay type: cell-based; details: for EC50: approximate values, one value per run; for anti-HIV effect (statement): NCI anti-HIV screen, in vitro, CEM cells; for TI50 (IC/EC), therapeutic index: ratio IC50/EC50 of the same run
Source text: as §1, with “The National Cancer Institute's procedure for testing for agents active against Human Immunodeficiency Virus (HIV) (Weislow, O. W. et al, "New soluble-formazan assay for HIV-1 cytopathic effects: application to high-flux screening of synthetic and natural products for AIDS-antiviral activity," J. Natl. Cancer Inst., 81, 577-586, 1989) is designed to detect agents acting at any stage of the virus reproductive cycle. The assay” for “The assay”
as §2, §3, §4, §5, §6, §7, §8
Approximate values for 50% effective concentration (EC50) (protection in infected cells), 50% inhibitory concentration (IC50) and the therapeutic index (IC50 /EC50) have been calculated for each test and are provided in the tables of each Example.
Examples 1, 6 and 8 compounds, respectively, against the measured test values expressed as a percentage of the uninfected, untreated control values. The solid line depicts the percentage of surviving HIV-infected cells treated with sample (at the indicated concentration) relative to uninfected, untreated controls. The solid line expresses the in vitro anti-HIV activity of the compound of the tested compound. The dashed line depicts the percentage of surviving uninfected cells treated with the compound of the Example relative to the same uninfected, untreated controls. The dashed line expresses the in vitro growth inhibitory properties of the compound of the Example. The viral cytopathic effect of a compound of each Example is indicated by a combination of dashes and dots. […] Survival values of this parameter less then 50% are considered acceptable in the current protocol.

[2] = Homo sapiens, CCRF-CEM, 144 h, drug-treated uninfected CEM cells, 6 days, XTT, approximate values, one value per run
[3] = drug-treated uninfected CEM cells, 6 days, XTT, approximate values, one value per run
[4] = Human immunodeficiency virus 1, CCRF-CEM, 144 h, read-out: EC50 (50% effective concentration, protection in infected cells), HIV-infected CEM cells, 6 days, XTT
[5] = HIV-infected CEM cells, 6 days, XTT, read-out: EC50 (50% effective concentration, protection in infected cells)
[6] = Human immunodeficiency virus 1, CCRF-CEM, 144 h, HIV-infected CEM cells, 6 days, XTT, read-out: EC50 (50% effective concentration, protection in infected cells)

Molecule	IC50 [1, 2]	IC50 [1, 3]	TI50 (IC/EC), therapeutic index (HIV)	EC50 (HIV; [6])	further results
CCCCCCCCCCCCCCCC=C(c1cc(Cl)c(OC)c(C(=O)O)c1)c1cc(Cl)c(OC)c(C(=O)O)c1 [Formula XXIV, 1,1-di(3'-carboxy-5'-chloro-4'-methoxy)phenyl-1-heptadecene]	26.6 µM	25.9 µM			cytotoxicity (statement) [1]: cytotoxic
CC(C)CCC[C@@H](C)[C@H]1CC[C@H]2[C@@H]3CC[C@H]4C[C@@H](CCCC(c5cc(Cl)c(O)c(C(=O)O)c5)c5cc(Cl)c(O)c(C(=O)O)c5)CC[C@]4(C)[C@H]3CC[C@]12C [Formula VI, (5α)-3β-[4,4-Di(3'-ammoniumcarboxy-5'-chloro-4'-hydroxy)phenyl-1-butyl]cholestane]			> 1.80 × 10^+1 and > 2.10 × 10^+1 and > 1.30 × 10^+1 and > 1.20 × 10^+1		EC50 (HIV; [4]): 17 µM; anti-HIV effect (statement) (HIV): greatest effect on inhibiting HIV-infected cells, while having a lesser effect on uninfected cells; EC50 (HIV; read-out: EC50 (50% effective concentration, protection in infected cells), HIV-infected CEM cells, 6 days, XTT): 15 µM and 23 µM and 25 µM; IC50 ([1]; Homo sapiens, CCRF-CEM, 144 h): > 310 µM
CCCCCCCCCCCCCCCCC(c1ccc(O)c(C(=O)O)c1)c1ccc(O)c(C(=O)O)c1 [Formula XXII]		51.4 µM and 119 µM	1.56 × 10^0 and 3.06 × 10^+1 and 3.05 × 10^+1		EC50 (HIV; [5]): 3.9 µM
CCCCCCCCCCC(c1ccc(O)c(C(=O)O)c1)c1ccc(O)c(C(=O)O)c1 [Formula XVIII]	84.6 µM		2.55 × 10^0	33.2 µM	
COc1c(Cl)cc(C(=Cc2c(F)c(F)c(F)c(F)c2F)c2cc(Cl)c(OC)c(C(=O)O)c2)cc1C(=O)O [Formula XXV]	434 µM	552 µM and 412 µM		140 µM	EC50 (HIV; [5]): 102 µM and 176 µM
CCCCCC=C(c1cc(Br)cc(C(=O)O)c1OC)c1cc(Br)cc(C(=O)O)c1OC [Formula XXI]	175 µM	244 µM	1.80 × 10^0 and 3.52 × 10^0	97.1 µM	EC50 (HIV; [5]): 69.3 µM
CCCCCCCCCC=C(c1cc(Br)cc(C(=O)O)c1OC)c1cc(Br)cc(C(=O)O)c1OC [Formula XXIII, 1,1-[di-(3'-ammoniumcarboxy-5'-bromo-2'methoxy)phenyl]-1-undecene]	88.9 µM	79.5 µM and 68.3 µM and 69.8 µM			cytotoxicity (statement) [1]: cytotoxic
CCCCCC=C(c1cc(Cl)c(OC)c(C(N)=O)c1)c1cc(Cl)c(OC)c(C(N)=O)c1 [Formula XVI, 1,1-di(3'-carbamoyl-5'-chloro-4'-methoxy)phenyl-1-heptene]	17.4 µM	17.2 µM and 16.3 µM and 13.4 µM			
CCCCCCCCCC=C(c1cc(Cl)c(O)c(C(=O)O)c1)c1cc(Cl)c(O)c(C(=O)O)c1 [Formula XIII, 1,1-di(3'-ammoniumcarboxy-5'-chloro-4'-hydroxy)phenyl-1-undecene]	> 49.1 µM		> 1.32 × 10^0	37.3 µM	
CCCCCCCCCC=C(c1cc(Br)c(O)c(C(=O)O)c1)c1cc(Br)c(O)c(C(=O)O)c1 [Formula XX, 1,1-di(3'-ammoniumcarboxy-5'-bromo-4'-hydroxy)phenyl-1-undecene]	> 191 µM		> 3.44 × 10^0	55.5 µM	
O=C(O)c1cc(C(=CCCBr)c2cc(Cl)c(O)c(C(=O)O)c2)cc(Cl)c1O [Formula XVII]	214 µM	237 µM and 181 µM and 258 µM	1.58 × 10^0 and 1.93 × 10^0 and 1.50 × 10^0 and 2.71 × 10^0	136 µM	EC50 (HIV; [5]): 122 µM and 121 µM and 95.1 µM
C[C@H](CCC=C(c1cc(Cl)c(O)c(C(=O)O)c1)c1cc(Cl)c(O)c(C(=O)O)c1)[C@H]1CC[C@H]2[C@@H]3CC[C@@H]4CC(F)(F)CC[C@]4(C)[C@H]3CC[C@]12C [Formula X, (5β)-3,3-difluoro-17-[5,5-di(3-ammoniumcarboxy-5-chloro-4-hydroxy)phenyl-1-methyl-4-pentenyl]androstane]	41 µM		1.80 × 10^0		EC50 (HIV; [4]): 24 µM
CCCCCC=C(c1cc(Br)c(OC)c(C(=O)OC)c1)c1cc(Br)c(OC)c(C(=O)OC)c1 [Formula XII, 1,1-di(5'-bromo-3'-carbomethoxy-4'-methoxy)phenyl-1-heptene]	> 8.95 µM				anti-HIV effect (statement) (HIV): greatest effect on inhibiting HIV-infected cells, while having a lesser effect on uninfected cells; anti-HIV effect (statement) (HIV; listed as structure XII): most effective compounds studied in terms of prevention of the cytopathic effect of HIV in CEM lymphocytes
CCCCCCCCCCCCCCCC=C(c1cc(Cl)c(O)c(C(=O)O)c1)c1cc(Cl)c(O)c(C(=O)O)c1 [Formula XIV, 1,1-di(3'-ammoniumcarboxy-5'-chloro-4'-hydroxy)phenyl-1-heptadecene]	> 35 µM		> 7.57 × 10^0	4.62 µM	
(5α)-3β-[4,4-di(5'-bromo-4'-methoxy-3'-methoxycarbonyl)phenyl-1-buten-3-yl]cholestane [Formula VII]		> 280 µM			
CCCCCCCCCCCCCCCCCCCCCCCCCCCCCC=C(c1cc(Cl)c(O)c(C(=O)O)c1)c1cc(Cl)c(O)c(C(=O)O)c1 [Formula XI, 1,1-di(3'-ammoniumcarboxy-5'-chloro-4'hydroxy) phenyl-1-untriacontene]	> 222 µM	> 220 µM	> 1.67 × 10^+1 and > 1.36 × 10^+4 and > 1.90 × 10^+1 and > 2.40 × 10^+1	13.3 µM	EC50 (HIV; [5]): 16.3 µM and 11 µM and 9.3 µM; anti-HIV effect (statement) (HIV): greatest effect on inhibiting HIV-infected cells, while having a lesser effect on uninfected cells
COc1c(Cl)cc(C(=CCC[C@H]2CC[C@@]3(C)[C@@H](CC[C@@H]4[C@@H]3CC[C@]3(C)[C@@H]([C@H](C)CCCC(C)C)CC[C@@H]43)C2)c2cc(Cl)c(OC)c(C(=O)O)c2)cc1C(=O)O [Formula V]					anti-HIV effect (statement) (HIV): greatest effect on inhibiting HIV-infected cells, while having a lesser effect on uninfected cells; IC50 ([1]; Homo sapiens, CCRF-CEM, 144 h): > 300 µM
CC(CCC=C(c1cc(Cl)c(O)c(C(=O)O)c1)c1cc(Cl)c(O)c(C(=O)O)c1)C1CC[C@H]2[C@@H]3CC[C@H]4CCCC[C@]4(C)[C@H]3CC[C@]12C (stereo partly shown) [Formula IX]		> 59 µM and > 69 µM and 79 µM			
CCCCCC=C(c1cc(Br)cc(C(=O)O)c1O)c1cc(Br)cc(C(=O)O)c1O [Formula XV]	> 21.8 µM		> 1.43 × 10^0	15.3 µM	
CCCCCCCCCC=C(c1cc(Cl)c(OC)c(C(=O)O)c1)c1cc(Cl)c(OC)c(C(=O)O)c1 [Formula XXVII, 1,1-di(3'-ammoniumcarboxy-5'-chloro-4'methoxy) phenyl-1-undecene]	149 µM	166 µM and 169 µM			
COC(=O)c1cc(C(=CCCBr)c2cc(Cl)c(OC)c(C(=O)OC)c2)cc(Cl)c1OC [Formula XIX, 4-bromo-1,1-di(3'-carbomethoxy-5'-chloro4'-methoxy)phenyl-1-butene]	21.5 µM	15.2 µM	2.62 × 10^0 and 1.96 × 10^0	8.19 µM	EC50 (HIV; [5]): 7.73 µM
CCCCCC=C(c1cc(Cl)c(OC)c(C(=O)OC)c1)c1cc(Cl)c(OC)c(C(=O)OC)c1 [Formula XXVI, di(3'-carbomethoxy-5'-chloro-4'-methoxy)phenyl-1-heptene]	> 29.1 µM	> 28.2 µM			
